From patent US20240132478A1, “COCRYSTAL” (Syndesi Therapeutics SA, priority 2020, published 2024)
Read-outs that look alike come from different tables or passages of the source.

Key:
Type in all cases: physicochemical
[1] = Thermo-Gravimetric Analysis (TGA)
Description: TA Instruments Discovery TGA: TGA data were collected on a TA Instruments Discovery TGA, equipped with a 25 position auto-sampler. Typically, 5 10 mg of each sample was loaded onto a pre-tared aluminium DSC pan and heated at 10° C./min from ambient temperature to 350° C. A nitrogen purge at 25 mlmL/min was maintained over the sample. The instrument control software was TRIOS and the data were analysed using Universal Analysis.

[2] = Gravimetric Vapour Sorption (GVS) moisture sorption isotherm; conditions: for GVS reversible water uptake: between 0-90% RH; for Hygroscopicity: in words, by GVS
Description: Sorption isotherms were obtained using a SMS DVS Intrinsic moisture sorption analyser, controlled by DVS Intrinsic Control software. The sample temperature was maintained at 25° C. by the instrument controls. The humidity was controlled by mixing streams of dry and wet nitrogen, with a total flow rate of 200 ml/min. The relative humidity was measured by a calibrated Rotronic probe (dynamic range of 1.0-100% RH), located near the sample. The weight change, (mass relaxation) of the sample as a function of % RH was constantly monitored by a microbalance (accuracy ±0.005 mg). Typically, 5-30 mg of sample was placed in a tared mesh stainless steel basket under ambient conditions. The sample was loaded and unloaded at 40% RH and 25° C. (typical room conditions). A moisture sorption isotherm was performed as outlined below (2 scans per complete cycle). The standard isotherm was performed at 25° C. at 10% RH intervals over a 0-90% RH range. Typically, a double cycle (4 scans) was carried out. Data analysis was carried out within Microsoft Excel using the DVS Analysis Suite.
The sample was recovered after completion of the isotherm and re-analysed by XRPD.

[3] = Storage stability at elevated temperature and humidity (XRPD and HPLC purity after storage)
[4] = as above; conditions: for Storage: XRPD pattern: 40° C./75% RH, after 7 days; for XRPD after storage at 40° C./75% RH: 7 days; for Stability to increased temperature and humidity: in words, increased temperature (40° C.) and high humidity; for Stability at 25° C./97% RH and 40° C./75% RH: XRPD after storage
Description: Bruker AXS D8 Advance: XRPD diffractograms were collected on a Bruker D8 diffractometer using Cu Kα radiation (40 kV, 40 mA) and a θ-2θ goniometer fitted with a Ge monochromator. The incident beam passes through a 2.0 mm divergence slit followed by a 0.2 mm anti-scatter slit and knife edge. The diffracted beam passes through an 8.0 mm receiving slit with 2.5° Soller slits followed by the Lynxeye Detector. The software used for data collection and analysis was Diffrac Plus XRD Commander and Diffrac Plus EVA respectively. Samples were run under ambient conditions as flat plate specimens using powder as received. The sample was prepared on a polished, zero-background (510) silicon wafer by gently pressing onto the flat surface or packed into a cut cavity. The sample was rotated in its own plane. The details of the data collection method are: • Angular range: 2 to 42° 2θ • Step size: 0.05° 2θ • Collection time: 0.5 s/step (total collection time: 6.40 min)
Purity analysis was performed on an Agilent Ip 100/Infinity 111260 series system equipped with a diode array detector and using OpenLAB software. The full method details are provided below:
The three potential cocrystals were characterised using DSC, 1H NMR, TGA and by evaluating their stability with XRPD after 7 or 8 days of being stored at 40° C./75% RH. All three cocrystals were unchanged by XRPD after storage at 40° C./75% RH and none had significant amounts of solvent present (Table 28). The 4 HBA cocrystal appeared to have a similar melt to the starting material (ca. 85° C.). […] All initially appeared to have a 1:1 stoichiometry. […]

[5] = Differential Scanning Calorimetry (DSC); conditions: for DSC Endotherm, enthalpy / DSC Endotherm, onset temp: single endotherm; for DSC Endotherm, onset temp: followed by exothermic event; for Melting point (onset): * = multiple thermal events
Description: TA Instruments Q2000: DSC data were collected on a TA Instruments Q2000 equipped with a 50 position auto sampler. Typically, 0.5 3 mg of each sample, in a pin-holed aluminium pan, was heated at 10° C./min from 25° C. to 235° C. A purge of dry nitrogen at 50 mlmL/min was maintained over the sample. The instrument control software was Advantage for Q Series and Thermal Advantage and the data were analysed using Universal Analysis or TRIOS.
TA Instruments Discovery DSC: DSC data were also collected on a TA Instruments Discovery DSC equipped with a 50 position auto-sampler. Typically, 0.5 3 mg of each sample, in a pin-holed aluminium pan, was heated at 10° C./min from 25° C. to 235° C. A purge of dry nitrogen at 50 mlmL/min was maintained over the sample. The instrument control software was TRIOS and the data were analysed using TRIOS or Universal Analysis.

[6] = Variable temperature XRPD (VT-XRPD)
Description: Non-ambient conditions: For variable temperature (VT-XRPD) experiments samples were mounted on an Anton Paar DHS 900 hot stage at ambient conditions. The sample was then heated to the appropriate temperature at 10° C./min and subsequently held isothermally for 2 minutes before data collection. Samples were prepared and analysed on a silicon wafer mounted to the hot stage using a heat-conducting paste.

For `O=C(O)c1cc(O)cc(O)c1.O=C1C[C@H](c2cc(F)c(F)c(F)c2)CN1Cn1ncnc1Cl` [3,5-DHBA Pattern 1], the “TGA onset of dissociation/decomposition” value [1] was “ca. 120 °C”, the “Hygroscopicity (GVS)” value [2] was “Slightly hygroscopic” and the “XRPD post-GVS” value [2] was “Unchanged by XRPD post-GVS”. For the same molecule, the “GVS reversible water uptake” value [2] was ~0.2% w/w reversible water uptake, the Hygroscopicity [2] was “only slightly hygroscopic” and the “Storage: Purity” value ([3]; 25° C./97% RH, 7 days) was “Purity: 99.9%”. For the same molecule, the “Storage: XRPD pattern” value ([3]; 25° C./97% RH, after 7 days) was “XRPD Pattern unchanged after 7 days”, the “Storage: Purity” value ([3]; 40° C./75% RH, 7 days) was “Purity: 99.7%” and the “Storage: XRPD pattern” value [4] was “XRPD Pattern unchanged after 7 days”. For the same molecule, the “XRPD after storage at 40° C./75% RH” value [4] was 7 days: Unchanged, the “Stability to increased temperature and humidity” value [4] was “remains stable” and the “DSC Endotherm, enthalpy” value [5] was 85 J/g. The “DSC Endotherm, onset temp” value [5] was 113.3 °C, the “VT-XRPD pattern on heating” value [6] was “XRPD pattern remained unchanged until” and the “VT-XRPD temperature at which sample melted” value [6] was “it melted at ca. 113 °C”.
With `O=C(O)c1ccc(O)cc1O.O=C(O)c1ccc(O)cc1O.O=C1C[C@H](c2cc(F)c(F)c(F)c2)CN1Cn1ncnc1Cl` [2,4-DHBA Pattern 1] the “TGA mass loss prior to dissociation/degradation” value [1] was “No significant mass loss prior to dissociation/”, the “TGA w/w loss on dissociation/degradation” value ([1]; followed by continual decomposition) was “degradation then 43.4% w/w loss followed by continual” and the “Hygroscopicity (GVS)” value [2] was “Slightly hygroscopic”. The “XRPD post-GVS” value [2] was “Some changes by XRPD post-GVS”, the “GVS reversible water uptake” value [2] was 0.53% w/w reversible water uptake between 0-90% and the Hygroscopicity [2] was “only slightly hygroscopic”. For the same molecule, the “XRPD post-GVS” value ([2]; sample re-analysed by XRPD after isotherm) was “slight changes”, the “Storage: XRPD pattern” value ([3]; 25° C./97% RH, after 7 days) was “XRPD pattern unchanged after 7 days” and the “Storage: Purity” value ([3]; 25° C./97% RH, after ca 1 month on storage) was “Purity: 99.7% (after ca 1 month on storage)”. For the same molecule, the “Storage: Purity” value ([3]; 40° C./75% RH, after ca 1 month on storage) was “Purity: 97.9% (after ca 1 month on storage)”, the “XRPD after storage at 40° C./75% RH” value ([3]; 8 days) was 8 days: Unchanged and the “Storage: XRPD pattern” value [4] was “XRPD pattern unchanged after 7 days”. For the same molecule, the “Stability at 25° C./97% RH and 40° C./75% RH” value [4] was “Stable,”, the “Stability to increased temperature and humidity” value [4] was “remains stable” and the “Melting point (onset)” value [5] was 138.2 °C. For the same molecule, the “DSC Endotherm, enthalpy” value [5] was 91 J/g, the “DSC Endotherm, onset temp” value [5] was 138.2 °C and the “VT-XRPD pattern on heating” value [6] was “XRPD pattern remained unchanged until the sample”. The “VT-XRPD temperature at which sample melted” value [6] was “melted at ca. 139 °C”.
For `O=C(O)c1cc(O)cc(O)c1.O=C1C[C@@H](c2cc(F)c(F)c(F)c2)CN1Cn1ncnc1Cl` [ARP-1725-71-02C], the “Stability at 25° C./97% RH and 40° C./75% RH” value [4] was “Stable,” and the “Melting point (onset)” value [5] was 113.3 °C.
With `O=C(O)c1ccc(O)cc1.O=C1C[C@H](c2cc(F)c(F)c(F)c2)CN1Cn1ncnc1Cl` [4-HBA Pattern 1] the TGA w/w loss ([1]; from 114-268° C., followed by continual decomposition) was 29.0% w/w loss from 114-268 °C, the “Hygroscopicity (GVS)” value [2] was “Non-hygroscopic” and the “XRPD post-GVS” value [2] was “RH, unchanged by XRPD post-GVS”. For the same molecule, the “GVS reversible water uptake” value [2] was ~0.11% w/w reversible water uptake between 0-90%, the Hygroscopicity [2] was “non-hygroscopic” and the “Storage: Purity” value ([3]; 25° C./97% RH, 11 days) was “Purity: 99.9%”. For the same molecule, the “Storage: XRPD pattern” value ([3]; 25° C./97% RH, after 11 days) was “XRPD pattern unchanged after 11 days”, the “Storage: Purity” value ([3]; 40° C./75% RH, 11 days) was “Purity: 99.7%” and the “Storage: XRPD pattern” value ([3]; 40° C./75% RH, after 11 days) was “XRPD pattern unchanged after 11 days”. For the same molecule, the “XRPD after storage at 40° C./75% RH” value [4] was 7 days: Unchanged, the “Stability at 25° C./97% RH and 40° C./75% RH” value [4] was “Stable,” and the “Stability to increased temperature and humidity” value [4] was “stable”. For the same molecule, the “DSC 1st Endotherm, enthalpy” value [5] was 8 J/g, the “DSC 1st Endotherm, onset temp” value [5] was 70.6 °C and the “DSC 2nd Endotherm, enthalpy” value [5] was 56 J/g. The “DSC 2nd Endotherm, onset temp” value [5] was 87.7 °C, the “DSC Broad exotherm, enthalpy” value [5] was 19 J/g and the “DSC Broad exotherm, onset temp” value [5] was 110 °C. For the same molecule, the “Melting point (onset)” value [5] was 87.7° C.* and the “VT-XRPD pattern on heating” value [6] was “XRPD pattern changes slightly on heating between 60 °C”.
